According to US11306095B2 (EAST CHINA UNIVERSITY OF SCIENCE AND TECHNOLOGY, priority 2015, dated 2022):
≈ marks a conversion by molar mass, not a printed value.

Key:
[1] = test system: H1975 cell xenograft; assay: H1975 cell xenograft tumor assay; assay type: in vivo, BALB/c nude mice
Method: Purpose of experiment: H1975 transplanted BALB/c nude mice were orally administered (PO) with a substance to be tested for 14 consecutive days. The body weight and tumor size of nude mice were observed and recorded.
H1975 cells were obtained from Shanghai Institute of Materia Medica. […] Cells were fluid-changed and passaged for one time every 2-3 days and expanded. When the desired amount of cells was achieved, transplantation of cells was performed.
(§1) 40 male BALB/c nude mice, aged 4-5 weeks and weighing 17-23 g, were purchased from Shanghai Bikai, placed in an animal room environment for 2-3 days, and then seeded with cells. Cell suspension was subcutaneously injected at forelimb of the nude mouse rich in capillaries, and each mouse was injected with 0.1 mL of cell suspension.
(§2) Appropriate amount of a substance to be tested was weighed, suspended in 14 mL of DMSO-PEG400 saline solution (DMSO:PEG400:saline=1:30:69) respectively, formulated according to the following table, suspended or dissolved by ultrasonic wave, filled into vials and sealed, and reserved in a 4° C. refrigerator for further use.
(§3) The length and width of a tumor and body weight of a mouse were recorded at least twice a week. The tumor size is calculated as V=0.5*length*width*width.

[2] = test system: A431 cells (EGFR wild type); assay: Inhibitory activity on cell proliferation, A431; assay type: cell-based; details: Homo sapiens, A-431; A431, 72 hours; read-out: Inhibitory activity on proliferation of cells (IC50, μM) A431
[3] = target: T1, EGFR-L858R/T790M (Homo sapiens, UniProt P00533, L858R/T790M); assay: Kinase activity test (FRET), EGFR T790M/L858R; assay type: biochemical; details: EGFR T790M/L858R; read-out: Inhibitory activity of EGFR on kinase (IC50, nM) T790M/L858R
T1 construct: purchased Invitrogen PV4879
T1 sequence (P00533 25-1210 T790M/L858R): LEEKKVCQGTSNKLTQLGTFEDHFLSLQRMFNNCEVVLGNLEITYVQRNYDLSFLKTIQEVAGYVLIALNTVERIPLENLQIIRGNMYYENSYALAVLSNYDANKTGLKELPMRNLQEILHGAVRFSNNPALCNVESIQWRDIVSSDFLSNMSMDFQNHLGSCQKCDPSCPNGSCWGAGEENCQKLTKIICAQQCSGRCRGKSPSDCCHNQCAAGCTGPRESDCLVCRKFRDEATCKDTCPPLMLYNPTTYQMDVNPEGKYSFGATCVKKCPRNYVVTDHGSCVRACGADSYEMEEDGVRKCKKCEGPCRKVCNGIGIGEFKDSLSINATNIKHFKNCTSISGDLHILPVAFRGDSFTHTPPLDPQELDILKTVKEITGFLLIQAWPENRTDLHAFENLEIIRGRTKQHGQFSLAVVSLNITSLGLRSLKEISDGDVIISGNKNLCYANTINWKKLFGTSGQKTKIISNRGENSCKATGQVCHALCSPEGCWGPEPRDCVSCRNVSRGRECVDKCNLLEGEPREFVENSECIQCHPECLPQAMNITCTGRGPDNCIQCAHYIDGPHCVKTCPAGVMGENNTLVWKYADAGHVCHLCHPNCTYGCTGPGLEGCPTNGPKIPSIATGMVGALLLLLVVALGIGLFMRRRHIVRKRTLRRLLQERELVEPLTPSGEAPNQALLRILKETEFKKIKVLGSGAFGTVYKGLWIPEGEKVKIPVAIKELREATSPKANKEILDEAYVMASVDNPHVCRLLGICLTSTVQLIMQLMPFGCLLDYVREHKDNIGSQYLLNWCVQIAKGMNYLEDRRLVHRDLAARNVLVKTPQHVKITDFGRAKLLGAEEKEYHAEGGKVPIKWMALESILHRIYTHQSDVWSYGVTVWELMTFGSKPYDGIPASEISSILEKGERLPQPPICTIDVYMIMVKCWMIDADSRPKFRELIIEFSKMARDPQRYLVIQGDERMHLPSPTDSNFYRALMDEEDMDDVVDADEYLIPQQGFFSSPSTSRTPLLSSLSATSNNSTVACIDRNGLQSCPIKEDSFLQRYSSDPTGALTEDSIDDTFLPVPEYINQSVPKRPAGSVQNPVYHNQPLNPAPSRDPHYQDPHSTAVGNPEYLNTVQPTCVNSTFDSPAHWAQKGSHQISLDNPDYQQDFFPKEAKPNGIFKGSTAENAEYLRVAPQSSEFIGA
Procedure, shortened: (§4)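 FRET assay with coumarin/fluorescein-labelled poly(Glu, Tyr)4:1 peptide and ATP, compounds at 5.1×10^−11 to 1.0×10^−6 mol/L final. Kinase reaction 1.5 h at room temperature, then 1 h development cleaving unphosphorylated peptide.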

[4] = test system: A431 cell xenograft (EGFR wild-type); assay: A431 cell xenograft tumor assay; assay type: in vivo, BALB/c nude mice; details: 25 mg/kg, oral, 14 days
Method: Purpose of experiment: A431 xenograft tumor BALB/c nude mice were orally administered (PO) with a substance to be tested for 14 consecutive days. The body weight and tumor size of nude mice were observed and recorded.
Cells were fluid-changed and passaged for one time every 2-3 days and expanded. When the desired amount of cells was achieved, transplantation of cells was performed.
as §1
as §2, with “sealed” for “sealed,”
as §3

[5] = Pathological analysis of tumor-bearing mice after 14 consecutive days of administration; assay type: in vivo
[6] = target: T2, Wild type EGFR (Homo sapiens, UniProt P00533); assay: Kinase activity test (FRET), wild type EGFR; assay type: biochemical; details: wild type EGFR; read-out: Inhibitory activity of EGFR on kinase (IC50, nM) WT
T2 construct: purchased Invitrogen PV3872
T2 sequence (P00533 25-1210): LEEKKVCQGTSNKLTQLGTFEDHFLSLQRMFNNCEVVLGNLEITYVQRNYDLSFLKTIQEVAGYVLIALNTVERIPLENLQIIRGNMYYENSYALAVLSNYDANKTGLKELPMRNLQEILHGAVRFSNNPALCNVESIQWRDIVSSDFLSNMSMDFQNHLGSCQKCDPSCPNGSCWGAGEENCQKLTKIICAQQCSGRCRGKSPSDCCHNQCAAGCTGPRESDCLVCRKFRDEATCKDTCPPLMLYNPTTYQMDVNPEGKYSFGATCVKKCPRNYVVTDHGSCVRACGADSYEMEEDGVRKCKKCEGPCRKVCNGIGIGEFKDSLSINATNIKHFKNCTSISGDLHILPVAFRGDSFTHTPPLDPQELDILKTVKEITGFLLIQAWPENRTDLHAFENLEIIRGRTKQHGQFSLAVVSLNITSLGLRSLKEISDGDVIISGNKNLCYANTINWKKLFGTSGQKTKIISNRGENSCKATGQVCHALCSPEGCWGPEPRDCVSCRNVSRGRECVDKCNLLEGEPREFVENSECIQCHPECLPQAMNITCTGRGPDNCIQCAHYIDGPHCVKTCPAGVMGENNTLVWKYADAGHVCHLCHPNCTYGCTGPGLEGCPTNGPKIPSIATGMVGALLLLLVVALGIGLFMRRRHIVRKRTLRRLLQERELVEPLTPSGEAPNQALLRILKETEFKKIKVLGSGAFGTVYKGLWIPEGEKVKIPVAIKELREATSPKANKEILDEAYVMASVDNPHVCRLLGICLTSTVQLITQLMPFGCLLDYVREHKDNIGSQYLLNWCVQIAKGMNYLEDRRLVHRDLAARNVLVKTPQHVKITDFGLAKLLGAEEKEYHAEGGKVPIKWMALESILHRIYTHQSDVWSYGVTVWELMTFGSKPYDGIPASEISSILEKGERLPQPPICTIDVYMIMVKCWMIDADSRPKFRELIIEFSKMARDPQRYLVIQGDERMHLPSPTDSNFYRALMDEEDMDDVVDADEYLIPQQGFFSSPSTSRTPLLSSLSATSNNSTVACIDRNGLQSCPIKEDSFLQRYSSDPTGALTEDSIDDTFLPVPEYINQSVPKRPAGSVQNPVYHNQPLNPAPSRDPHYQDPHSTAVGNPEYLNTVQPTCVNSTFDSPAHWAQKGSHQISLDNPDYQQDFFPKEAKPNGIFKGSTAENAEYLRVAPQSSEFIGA
Procedure, shortened: as §4

[7] = test system: H1975 cells (EGFR L858R/T790M); assay: Inhibitory activity on cell proliferation, H1975; assay type: cell-based; details: Homo sapiens, NCI-H1975; H1975, 72 hours; read-out: Inhibitory activity on proliferation of cells (IC50, μM) H1975
[8] = Determination of solubility in water (PBS 20 mM, pH 6.8); assay type: physicochemical; details: PBS buffer, aqueous buffer, thermodynamic from solid; pH 6.8, 20 mM PBS; read-out: Solubility (pH 6.8, g/mL)
Procedure, shortened: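 Compound suspension filtered (0.22 μm PVDF), diluted in 50% methanol/50% PBS, absorbance read by UV spectrophotometry. Solubility calculated from a standard curve of 0.01–0.05 mg/mL methanol-derived solutions (r > 0.998).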

C=CC(=O)Nc1cccc(-n2c(=O)c(-c3ccccc3)nc3cnc(Nc4ccc(N5CCN(C)CC5)cc4OC)nc32)c1 [Compound 14, N-(3-(2-((2-methoxy-4-(4-methyl-1-piperazinyl)phenyl)amino)-7-oxo-6-phenyl-8(7H)-pteridinyl)phenyl)acrylamide]
effect on tumor size in H1975 xenograft (FIG. 2) ([1]; 25 mg/kg): effectively reduce the size of a tumor | efficacy in H1975 xenograft (FIG. 2), 25 mg/kg versus AZD9291 25 mg/kg ([1]; 25 mg/kg): comparable efficacy to AZD9291 | tumor recurrence after administration was stopped for 1 month (FIG. 2) ([1]; 25 mg/kg, H1975 xenograft): the tumor did not recur | efficacy in H1975 xenograft (FIG. 2), 10 mg/kg versus CO-1686 50 mg/kg ([1]; Compound 14 10 mg/kg, CO-1686 50 mg/kg): better efficacy over CO-1686 | efficacy in H1975 cell xenograft model (FIG. 1) ([1]; orally administered for 14 days, versus CO-1686): superior efficacy over CO-1686 | IC50 [2]: 4.18 µM | IC50 [3]: 1 nM | tumor size in EGFR wild-type A431 cell xenograft model (FIG. 3) [4]: the size of the tumor did not substantially change | selectivity on wild-type EGFR in A431 xenograft (FIG. 3) ([4]; versus afatinib): significantly better than afatinib | pathology, brain tissue (FIG. 5E) [5]: normal tissue structure, no pathological change | pathology, heart tissue (FIG. 5G) [5]: moderate expansion of myocardial fiber gap in the tissue | pathology, intestine tissue (FIG. 5A) [5]: mucosal inflammatory cell focal infiltration | pathology, kidney tissue (FIG. 5F) [5]: 1) a part of glomerular wall in the tissue thickening, as shown by the black arrow, and 2) no significant abnormality | pathology, liver tissue (FIG. 5C) [5]: 1) the extensive hepatic sinusoids dilatation in the entire tissue, as indicated by the black arrow, and 2) visible mild fatty degeneration in liver tissue, with small droplets of lipid | pathology, lung tissue (FIG. 5B) [5]: normal tissue structure, no pathological change | pathology, tumor tissue (FIG. 5D) [5]: moderate necrosis of cells in the entire tissues | IC50 [6]: 10.5 nM | IC50 [7]: 0.014 µM | solubility [8]: 9.7 µg/mL (≈ 16.5 µM)
